Assays:
TTK = biological target: T1, TTK (Homo sapiens, UniProt P33981); test: TTK enzyme inhibition, ADP-Glo kinase assay; type: biochemical; set-up: purchased SignalChem T20-10G; settings: ATP 5 μM
T1 sequence (P33981 1-857): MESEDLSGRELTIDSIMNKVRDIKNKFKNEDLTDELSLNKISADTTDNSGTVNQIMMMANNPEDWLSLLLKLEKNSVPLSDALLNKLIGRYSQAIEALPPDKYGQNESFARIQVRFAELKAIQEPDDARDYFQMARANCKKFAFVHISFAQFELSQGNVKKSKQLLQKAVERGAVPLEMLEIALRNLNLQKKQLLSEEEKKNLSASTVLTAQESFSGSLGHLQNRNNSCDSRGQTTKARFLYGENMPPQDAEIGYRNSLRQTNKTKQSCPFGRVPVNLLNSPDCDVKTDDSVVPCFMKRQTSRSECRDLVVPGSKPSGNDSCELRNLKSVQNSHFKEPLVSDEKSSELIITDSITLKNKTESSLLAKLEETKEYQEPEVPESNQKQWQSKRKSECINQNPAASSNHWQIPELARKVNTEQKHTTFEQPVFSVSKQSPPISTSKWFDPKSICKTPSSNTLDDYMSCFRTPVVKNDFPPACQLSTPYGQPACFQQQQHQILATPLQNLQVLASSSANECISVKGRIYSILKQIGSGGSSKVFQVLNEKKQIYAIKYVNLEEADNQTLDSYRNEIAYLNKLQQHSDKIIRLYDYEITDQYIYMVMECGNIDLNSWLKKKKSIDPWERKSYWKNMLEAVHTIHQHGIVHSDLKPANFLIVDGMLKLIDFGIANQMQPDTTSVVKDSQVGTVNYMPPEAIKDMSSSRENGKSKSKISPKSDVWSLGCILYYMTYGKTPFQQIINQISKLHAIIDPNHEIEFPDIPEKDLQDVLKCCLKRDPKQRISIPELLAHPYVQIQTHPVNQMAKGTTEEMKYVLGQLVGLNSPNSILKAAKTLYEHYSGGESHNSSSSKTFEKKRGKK
How it was run: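 Purified human TTK (7.5 ng) was reacted with 5 μM ATP and 0.2 μg MBP substrate for 4 h at 25 °C in 40 mM Tris-HCl pH 7.4, 20 mM MgCl2, 0.1 mg/mL BSA, 50 μM DTT. ADP formation was read by ADP-Glo luminescence, and IC50 was taken relative to solvent control.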

IL-6 = test: Inhibition of LPS-induced IL-6 secretion of THP-1 monocytes (ELISA); type: cell-based, human; settings: Homo sapiens, THP-1; compound 0.5 μM, LPS 500 ng/mL, 24 hours; read-out: THP1/IL6 (% inhib)
How it was run: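 THP-1 monocytes grown 16 h at 37 °C, pretreated 1 h with compound at final 0.5 μM, then stimulated with LPS at final 500 ng/mL for 24 h. IL-6 and TNF-α in culture supernatant measured by ELISA (OD 450 nm).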

MDA-MB-468 cell line = test: Inhibition of proliferation of MDA-MB-468 cancer cells (Cell Titer-Glo); type: cell-based; settings: Homo sapiens, MDA-MB-468, 72 hours
How it was run: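 2,000 cells/well, DMEM or RPMI; 11-pt 3-fold dilution, final 10.000000–0.000169 μM; 72 h. CellTiter-Glo, 10 min RT, luminescence read; GI50 fitted.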

Row | IC50 (TTK) [nM] | GI50 (MDA-MB-468 cell line) [nM] | SMILES | inhibition at 0.5 µM (IL-6) [%]
1 | < 100 | 301 to 1000 | COCCNc1nc(Nc2ccc(C(=O)N3CCN(C4COC4)CC3)c3c2OCCO3)nc2[nH]cc(C(F)(F)F)c12 [Example 403, (8-((4-((2-methoxyethyl)-amino)-5-(trifluoromethyl)-7H-pyrrolo[2,3-d]pyrimidin-2-yl)amino)-2,3-dihydrobenzo[b] [1,4]dioxin-5-yl) (4-(oxetan-3-yl)piperazin-1-yl)methanone] | 30.1
2 | < 100 | 301 to 1000 | O=C(c1ccc(Nc2nc(NC3CC3)c3c(C(F)(F)F)c[nH]c3n2)c2c1CCO2)N1CCC(N2CCOCC2)CC1 [Example 434, (7-((4-(cyclopropyl-amino)5-(trifluoromethyl)-7H-pyrrolo[2,3-d]pyrimidin-2-yl)amino)-2,3-dihydrobenzo-furan-4-yl)(4-morpho-linopiperidin-1-yl)methanone] | 34.1
3 | < 100 | 301 to 1000 | CCNc1nc(Nc2ccc(C(=O)N3CCC(N4CCOCC4)CC3)c3c2OCC3)nc2[nH]cc(C(F)(F)F)c12 [Example 438, (7-((4-(ethylamino)-5-(trifluoromethyl)-7H-pyrrolo[2,3-d]pyrimidin-2-yl)amino)-2,3-dihydrobenzo-furan-4-yl)(4-morpho-linopiperidin-1-yl)methanone] | 25.8
4 | < 100 | 301 to 1000 | COCCNc1nc(Nc2ccc(C(=O)N3CCC(N4CCOCC4)CC3)c3c2OCC3)nc2[nH]cc(C(F)(F)F)c12 [Example 443, (7-((4-((2-methoxyethyl)amino)-5-(trifluoromethyl)-7H-pyrrolo[2,3-d]pyrimidin-2-yl)amino)-2,3-dihydrobenzo-furan-4-yl)(4-morpho-linopiperidin-1-yl)methanone] | 4.6
5 | < 100 | 301 to 1000 | CCCNc1nc(Nc2ccc(C(=O)N3CCC(N4CCOCC4)CC3)c3c2OCC3)nc2[nH]cc(C(F)(F)F)c12 [Example 446, (4-morpholino-piperidin-1-yl)(7-((4-(propylamino)-5-(trifluoromethyl)-7H-pyrrolo[2,3-d]pyrimidin-2-yl)amino)-2,3-dihydrobenzo-furan-4-yl)methanone] | 17.3
6 | < 100 | 301 to 1000 | CCNc1nc(Nc2ccc(C(=O)N3CCC(N4C[C@@H]5C[C@H]4CO5)CC3)c3c2OCC3)nc2[nH]cc(C(F)(F)F)c12 [Example 468] | 22.4

The remaining lines, values behind:

Row | SMILES | IC50 (TTK) [nM] | GI50 (MDA-MB-468 cell line) [nM] | inhibition at 0.5 µM (IL-6) [%]
7 | CNc1nc(Nc2ccc(C(=O)N3CCN(C4COC4)CC3)c3c2OCCO3)nc2[nH]cc(C(F)(F)F)c12 [Example 397, (8-((4-(methylamino)-5-(trifluoromethyl)-7H-pyrrolo[2,3-d]pyrimidin-2-yl)amino)-2,3-dihydrobenzo[b] [1,4]dioxin-5-yl) (4-(oxetan-3-yl)piperazin-1-yl)methanone] | < 100 | 301 to 1000 | 32
8 | O=C(c1ccc(Nc2nc(NC3CCCC3)c3c(C(F)(F)F)c[nH]c3n2)c2c1OCCO2)N1CCN(C2COC2)CC1 [Example 414, (8-((4-(cyclopentyl-amino)-5-(trifluoromethyl)-7H-pyrrolo[2,3-d]pyrimidin-2-yl)amino)-2,3-dihydrobenzo[b] [1,4]dioxin-5-yl) (4-(oxetan-3-yl)piperazin-1-yl)methanone] | < 100 | 101 to 300 | 47.3
9 | CCNc1nc(Nc2ccc(S(=O)(=O)N3CCC(N4CCOCC4)CC3)c3c2OCCO3)nc2[nH]cc(C(F)(F)F)c12 [Example 430, N^4-ethyl-N^2-(8-((4-morpholino-piperidin-1-yl)sulfonyl)-2,3-dihydro-benzo[b][1,4]dioxin-5-yl)-5-(trifluoromethyl)-7H-pyrrolo[2,3-d]pyrimidine-2,4-diamine] | < 100 | 301 to 1000 | 21
10 | COc1cc(S(=O)(=O)N2CCC(N3C[C@H]4C[C@@H]3CO4)CC2)ccc1Nc1nc(C2CC2)c2c(C(F)(F)F)c[nH]c2n1 [Example 473, N-(4-((4-((1R,4R)-2-oxa-5-azabicyclo[2.2.1]heptan-5-yl)piperidin-1-yl)sulfonyl)-2-methoxyphenyl)-4-cyclopropyl-5-(trifluoromethyl)-7H-pyrrolo[2,3-d]pyrimidin-2-amine] | < 100 | 301 to 1000 | 31
